Test results reported in patent US20250092033A1, “HETEROAROMATIC NITROGEN-OXIDE COMPOUND, PREPARATION METHOD THEREFOR, AND USE THEREOF” (BEIJING AVISTONE BIOTECHNOLOGY CO., LTD., priority 2021, published 2025).

How the values were obtained:
Type in all cases: biochemical
Details in all cases: 10 concentrations, 3-fold dilution
MET F1200I = biological target: T1, MET F1200I (Homo sapiens, UniProt P08581, F1200I); assay: Kinase inhibition experiment (HTRF KinEASE-TK kit), mutant MET F1200I
T1 construct: purchased Signalchem M52-12GG/Y767-2
Description: (§1) The activity of the compounds was determined by detecting the residual amount of ATP after reacting with wild-type or mutant MET protein kinase by using an HTRF KinEASE-TK kit. […]
(§2) The compounds were determined on the selected kinase, the solvent control was set and a total of 10 concentrations were detected, diluted 3-fold, 2 replicates per concentration.
(§3) 1 volume of 5× kinase reaction buffer and 4 volumes of water; 5 mM MgCl2; 1 mM DTT; 1 mM MnCl2; or 2500 nm SEB.
(§4) 1) 10 nl or 4 μlof the diluted compound was transferred to each well of the reaction plate (784075 or 264706, Greiner or Thermo) with a pipette, the reaction plate was sealed with a sealing plate, and centrifuged at 1000 for 1 minute.
(§5) 2) 2× MET was prepared from 1× enzyme reaction buffer, 5 μl or 2 μl kinase was added to each well of the reaction plate, the reaction plate was sealed with a sealing plate, centrifuged at 1000 g for 30 seconds and incubated at room temperature for 10 min.
(§6) 3) a mixed solution of 2× TK-substrate-biotin and ATP were prepared from 1× enzyme reaction buffer solution, 5 μl or 2 μl TK-substrate-biotin/ATP of the mixed solution was added into a reaction plate, the reaction plate was sealed with a sealing plate, centrifuged at 1000 g for 30 seconds and reacted for 50 minutes or 10 minutes at room temperature.
(§7) 4) a mixed solution of 4× or 2× Sa-XL 665 and TK-antibody-Cryptate were prepared from HTRF detection buffer, 5 or 10 μl of the mixed solution of Sa-XL 665 and TK-antibody-Cryptate was added into each well, centrifuged at 1000 g for 30 seconds, and reacted at room temperature for 1 h.
(§8) 5) the fluorescence signals at 615 nm (cryptate) and 665 nm (XL665) were read with Envision 2104 or TECAN.
(§9) The data was analyzed using GraphPad Prism 6.0 or 7 software, and the dose-response curve was fitted with nonlinear S-curve regression, and the IC50 value was calculated therefrom.
(§10) Enzyme Inhibition Percent (%)=100-(Signalmpd-SignalAve_PC)/(SignalAve_VC-SignalAve_PC)×100

MET D1228N = biological target: T2, MET D1228N (Homo sapiens, UniProt P08581, D1228N); assay: Kinase inhibition experiment (HTRF KinEASE-TK kit), mutant MET D1228N
T2 construct: purchased Signalchem M52-12IG
Description: as §1, §2, §3, §4, §5, §6, §7, §8, §9, §10

[1] = biological target: T3, wild type (WT) MET kinase (Homo sapiens, UniProt P08581); assay: Kinase inhibition experiment (HTRF KinEASE-TK kit), wild-type MET
T3 construct: purchased Carna 08-151
Description: as §1, §2, §3, §4, §5, §6, §7, §8, §9, §10

T1 sequence (P08581 25-1390 F1200I): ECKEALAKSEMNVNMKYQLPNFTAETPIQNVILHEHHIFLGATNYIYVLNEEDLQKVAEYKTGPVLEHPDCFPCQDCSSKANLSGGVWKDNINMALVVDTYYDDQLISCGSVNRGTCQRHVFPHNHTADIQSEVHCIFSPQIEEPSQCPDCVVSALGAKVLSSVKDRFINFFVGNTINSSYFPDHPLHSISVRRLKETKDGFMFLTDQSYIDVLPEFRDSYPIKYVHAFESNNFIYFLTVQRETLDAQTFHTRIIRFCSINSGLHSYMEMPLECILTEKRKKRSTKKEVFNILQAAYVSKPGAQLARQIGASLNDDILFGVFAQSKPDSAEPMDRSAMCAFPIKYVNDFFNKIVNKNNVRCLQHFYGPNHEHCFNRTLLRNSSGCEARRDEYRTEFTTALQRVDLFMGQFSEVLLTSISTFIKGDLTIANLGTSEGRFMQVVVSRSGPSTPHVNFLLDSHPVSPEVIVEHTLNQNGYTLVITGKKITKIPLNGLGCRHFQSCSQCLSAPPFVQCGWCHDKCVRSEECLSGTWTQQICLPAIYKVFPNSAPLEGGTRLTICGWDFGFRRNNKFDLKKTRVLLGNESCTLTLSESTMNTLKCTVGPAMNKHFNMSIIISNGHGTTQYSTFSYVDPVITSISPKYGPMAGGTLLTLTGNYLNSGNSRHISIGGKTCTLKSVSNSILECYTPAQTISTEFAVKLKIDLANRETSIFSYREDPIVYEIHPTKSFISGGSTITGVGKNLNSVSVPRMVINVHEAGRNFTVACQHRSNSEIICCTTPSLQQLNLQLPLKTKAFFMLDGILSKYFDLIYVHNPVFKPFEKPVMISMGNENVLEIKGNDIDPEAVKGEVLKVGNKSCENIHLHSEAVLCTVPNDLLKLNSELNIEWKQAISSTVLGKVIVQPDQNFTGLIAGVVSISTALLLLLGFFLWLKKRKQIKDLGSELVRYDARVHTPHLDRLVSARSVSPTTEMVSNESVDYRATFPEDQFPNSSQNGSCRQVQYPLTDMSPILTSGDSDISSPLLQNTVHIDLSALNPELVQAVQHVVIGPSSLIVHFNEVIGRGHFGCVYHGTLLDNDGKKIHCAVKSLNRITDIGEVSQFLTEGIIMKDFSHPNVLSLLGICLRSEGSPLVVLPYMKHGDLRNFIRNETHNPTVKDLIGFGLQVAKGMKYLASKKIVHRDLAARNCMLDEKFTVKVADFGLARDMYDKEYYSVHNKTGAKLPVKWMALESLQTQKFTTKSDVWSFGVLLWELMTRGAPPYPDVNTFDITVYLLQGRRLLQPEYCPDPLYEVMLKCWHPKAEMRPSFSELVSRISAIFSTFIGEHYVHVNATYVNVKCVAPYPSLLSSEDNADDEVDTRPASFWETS
T2 sequence (P08581 25-1390 D1228N): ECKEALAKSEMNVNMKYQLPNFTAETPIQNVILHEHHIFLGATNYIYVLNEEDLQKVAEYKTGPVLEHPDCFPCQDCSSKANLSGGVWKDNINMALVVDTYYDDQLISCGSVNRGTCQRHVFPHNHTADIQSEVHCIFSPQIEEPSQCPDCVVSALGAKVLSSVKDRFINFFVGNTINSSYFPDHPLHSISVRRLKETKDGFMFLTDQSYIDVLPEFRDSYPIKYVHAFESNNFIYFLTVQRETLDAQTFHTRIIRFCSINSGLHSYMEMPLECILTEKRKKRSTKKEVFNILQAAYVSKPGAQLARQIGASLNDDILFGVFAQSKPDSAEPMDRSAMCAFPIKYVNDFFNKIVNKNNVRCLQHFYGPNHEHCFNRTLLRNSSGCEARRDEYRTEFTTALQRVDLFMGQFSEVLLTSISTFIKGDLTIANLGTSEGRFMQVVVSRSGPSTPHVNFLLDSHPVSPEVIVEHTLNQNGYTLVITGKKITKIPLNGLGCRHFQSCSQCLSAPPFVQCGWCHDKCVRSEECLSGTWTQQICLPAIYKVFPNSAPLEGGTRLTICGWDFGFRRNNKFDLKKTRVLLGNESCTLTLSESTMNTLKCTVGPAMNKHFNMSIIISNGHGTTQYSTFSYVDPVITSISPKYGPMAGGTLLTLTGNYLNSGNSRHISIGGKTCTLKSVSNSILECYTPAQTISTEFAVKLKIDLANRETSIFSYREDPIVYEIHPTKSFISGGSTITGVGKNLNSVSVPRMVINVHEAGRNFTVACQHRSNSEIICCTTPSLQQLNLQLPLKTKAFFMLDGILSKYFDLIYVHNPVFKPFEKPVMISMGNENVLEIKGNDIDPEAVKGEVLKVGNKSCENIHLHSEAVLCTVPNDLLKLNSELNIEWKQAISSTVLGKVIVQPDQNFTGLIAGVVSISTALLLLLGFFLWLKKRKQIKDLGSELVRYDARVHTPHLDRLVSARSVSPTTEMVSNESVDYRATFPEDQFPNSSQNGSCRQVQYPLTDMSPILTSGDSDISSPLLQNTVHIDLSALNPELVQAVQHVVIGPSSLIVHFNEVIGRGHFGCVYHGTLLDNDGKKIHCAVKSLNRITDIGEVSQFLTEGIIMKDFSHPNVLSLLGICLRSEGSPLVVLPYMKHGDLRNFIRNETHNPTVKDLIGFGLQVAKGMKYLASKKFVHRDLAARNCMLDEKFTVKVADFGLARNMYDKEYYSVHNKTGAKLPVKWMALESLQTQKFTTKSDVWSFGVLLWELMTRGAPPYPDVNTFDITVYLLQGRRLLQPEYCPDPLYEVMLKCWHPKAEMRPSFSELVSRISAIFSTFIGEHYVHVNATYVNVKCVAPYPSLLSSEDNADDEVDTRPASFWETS
T3 sequence (P08581 25-1390): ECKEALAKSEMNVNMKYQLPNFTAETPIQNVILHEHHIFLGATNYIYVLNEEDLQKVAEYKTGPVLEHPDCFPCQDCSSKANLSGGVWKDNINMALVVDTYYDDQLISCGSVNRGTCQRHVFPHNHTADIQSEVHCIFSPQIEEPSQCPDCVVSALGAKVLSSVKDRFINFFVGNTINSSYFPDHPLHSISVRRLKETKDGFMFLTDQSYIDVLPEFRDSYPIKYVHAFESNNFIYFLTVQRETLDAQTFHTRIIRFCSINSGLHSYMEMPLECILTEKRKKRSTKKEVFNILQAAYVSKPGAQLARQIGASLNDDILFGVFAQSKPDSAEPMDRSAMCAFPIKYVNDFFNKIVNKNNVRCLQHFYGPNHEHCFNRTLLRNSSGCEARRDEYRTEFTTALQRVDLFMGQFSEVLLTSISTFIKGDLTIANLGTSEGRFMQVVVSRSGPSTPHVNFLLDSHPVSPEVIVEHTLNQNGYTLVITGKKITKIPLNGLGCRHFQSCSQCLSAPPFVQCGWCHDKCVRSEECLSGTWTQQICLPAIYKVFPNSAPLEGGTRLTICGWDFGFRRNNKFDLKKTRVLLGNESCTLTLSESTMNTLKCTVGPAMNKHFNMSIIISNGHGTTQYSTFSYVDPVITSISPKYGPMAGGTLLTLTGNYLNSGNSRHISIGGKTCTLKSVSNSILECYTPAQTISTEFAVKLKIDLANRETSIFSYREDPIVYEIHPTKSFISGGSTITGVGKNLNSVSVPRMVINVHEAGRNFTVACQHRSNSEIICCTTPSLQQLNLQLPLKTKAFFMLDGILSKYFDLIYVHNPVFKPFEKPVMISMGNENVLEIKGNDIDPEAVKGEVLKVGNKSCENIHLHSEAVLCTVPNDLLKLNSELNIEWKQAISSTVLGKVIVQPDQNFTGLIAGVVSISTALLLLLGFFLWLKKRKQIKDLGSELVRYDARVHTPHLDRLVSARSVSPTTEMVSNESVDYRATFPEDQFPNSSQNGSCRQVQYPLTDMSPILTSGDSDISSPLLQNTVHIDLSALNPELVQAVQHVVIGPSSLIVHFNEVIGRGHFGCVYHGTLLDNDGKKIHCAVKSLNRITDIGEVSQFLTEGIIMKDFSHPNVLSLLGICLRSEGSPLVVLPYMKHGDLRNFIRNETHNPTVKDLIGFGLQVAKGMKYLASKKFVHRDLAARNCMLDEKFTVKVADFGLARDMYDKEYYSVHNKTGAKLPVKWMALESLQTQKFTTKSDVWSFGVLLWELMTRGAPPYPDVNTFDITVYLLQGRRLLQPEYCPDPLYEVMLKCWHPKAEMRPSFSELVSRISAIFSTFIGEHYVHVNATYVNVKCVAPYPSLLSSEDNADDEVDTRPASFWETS

| SMILES | IC50 (MET F1200I) [nM] | IC50 (MET D1228N) [nM] | IC50 [1] [nM] |
| --- | --- | --- | --- |
| C[C@@H](CO)Cn1ccc2ncnc(Oc3ccc(NC(=O)c4cccc(-c5ccc(F)cc5)[n+]4[O-])cc3F)c21 [Final product 170, (R)-2-((3-fluoro-4-((5-(3-hydroxy-2-methylpropyl)-5H-pyrrolo[3,2-d]pyrimidin-4-yl)oxy)phenyl)carbamoyl)-6-(4-fluorophenyl)pyridine 1-oxide] | 8.5 | 16.2 | 4.2 |
| C[C@H](CO)Nc1n[nH]c2nccc(Oc3ccc(NC(=O)c4ccc(F)c(-c5ccc(F)cc5)[n+]4[O-])c(F)c3)c12 [Final product 155] | 13.2 | 27.4 | 5.6 |
| C[C@H](CO)Nc1n[nH]c2nccc(Oc3ccc(NC(=O)c4ccnc(-c5ccc(F)cc5)[n+]4[O-])cc3F)c12 [Final product 96] | 4.5 | 14.1 | 2.2 |
| C[C@H](CO)Nc1n[nH]c2nccc(Oc3ccc(NC(=O)c4cccc(-c5ccc(Cl)cc5)[n+]4[O-])cc3F)c12 [Final product 42] | 14.2 | 36.2 | 1.4 |
| O=C(Nc1ccc(Oc2ccnc3[nH]nc(N[C@H]4CC[C@@H](O)C4)c23)c(Cl)c1)c1cccc(-c2ccc(F)cc2)[n+]1[O-] [Final product 114] | 10.7 | 18.7 | 5.1 |
| Cc1ccc(C(=O)Nc2ccc(Oc3ccnc4[nH]nc(N[C@H]5COC[C@@H]5O)c34)c(Cl)c2)[n+]([O-])c1-c1ccc(F)cc1 [Final product 129] | 8.8 | 21.1 | 0.6 |
| O=C(Nc1ccc(Oc2ccnc3[nH]nc(N[C@H]4COC[C@@H]4O)c23)c(Cl)c1)c1ccc(F)c(-c2ccc(F)cc2)[n+]1[O-] [Final product 120] | 14.5 | 17.6 | 1.3 |
| C[C@H](CO)Nc1n[nH]c2nccc(Oc3ccc(NC(=O)c4ccc(Cl)c(-c5ccc(F)cc5Cl)[n+]4[O-])cc3F)c12 [Final product 66] | 35.5 | 11 | 2.7 |
| CC[C@@H](CO)Nc1n[nH]c2nccc(Oc3ccc(NC(=O)c4ccc(Cl)c(-c5ccc(F)cc5)[n+]4[O-])cc3F)c12 [Final product 59] | 7.9 | 20.3 | 12.7 |
| C[C@H](CO)Nc1n[nH]c2nccc(Oc3ccc(NC(=O)c4ccc(OCC(F)F)c(-c5ccc(F)cc5)[n+]4[O-])cc3Cl)c12 [Final product 141] | 33 | 26.3 | 1.9 |
| C[C@H](CO)Nc1n[nH]c2nccc(Oc3ccc(NC(=O)c4cc(C5CC5)cc(-c5ccc(F)cc5)[n+]4[O-])cc3F)c12 [Final product 91] |  | 41.2 | 12.1 |
| CC1(O)CCN(c2n[nH]c3nccc(Oc4ccc(NC(=O)c5cccc(-c6ccc(F)cc6)[n+]5[O-])cc4F)c23)CC1 [Final product 27] | 8.6 | 13.4 | 4.5 |
| O=C(Nc1ccc(Oc2ccnc3[nH]nc(N[C@H]4C[C@H](O)C4)c23)c(F)c1)c1cccc(-c2ccc(F)cc2)[n+]1[O-] [Final product 23] | 12.5 | 21 | 3.3 |
| C[C@@H](CO)Nc1n[nH]c2nccc(Oc3ccc(NC(=O)c4cccc(-c5ccc(F)cc5)[n+]4[O-])cc3F)c12 [Final product 3] | 18.3 | 13.1 | 4.3 |
| CCC(O)CNc1n[nH]c2nccc(Oc3ccc(NC(=O)c4cccc(-c5ccc(F)cc5)[n+]4[O-])cc3F)c12 (stereo not drawn) [Final product 9] | 20.8 | 25.6 | 3.8 |
| C[C@H](CO)Nc1n[nH]c2nccc(Oc3cc(F)c(NC(=O)c4ccc(Cl)c(-c5ccc(F)cc5)[n+]4[O-])cc3F)c12 [Final product 157] | 17.5 | 46.2 | 1.7 |
| O=C(Nc1ccc(Oc2ccnc3[nH]nc(NC4CC(CO)C4)c23)c(Cl)c1)c1cccc(-c2ccc(F)cc2)[n+]1[O-] (stereo not drawn) [Final product 113] | 9.2 | 22.5 | 3.3 |
| O=C(Nc1ccc(Oc2ccnc3[nH]nc(N4CCO[C@@H](CO)C4)c23)c(F)c1)c1cccc(-c2ccc(F)cc2)[n+]1[O-] [Final product 34] | 12.3 | 18.8 | 2.7 |

| SMILES | IC50 (MET F1200I) [nM] | IC50 (MET D1228N) [nM] | IC50 [1] [nM] |
| --- | --- | --- | --- |
| C[C@H](CO)Nc1n[nH]c2nccc(Oc3ccc(NC(=O)c4ccc(F)c(-c5ccc(Cl)cc5)[n+]4[O-])cc3F)c12 [Final product 56] | 14.4 | 17.7 | 5 |
| O=C(Nc1ccc(Oc2ccnc3[nH]nc(N[C@H]4CC[C@H](O)CC4)c23)c(F)c1)c1ccc(Cl)c(-c2ccc(F)cc2)[n+]1[O-] [Final product 64] | 22.5 | 45.6 |  |
| CC(O)C(CO)CNc1n[nH]c2nccc(Oc3ccc(NC(=O)c4cccc(-c5ccc(F)cc5)[n+]4[O-])cc3Cl)c12 (stereo not drawn) [Final product 102] | 2.1 | 6.3 | 1 |
| CC[C@@H](CO)Nc1n[nH]c2nccc(Oc3ccc(NC(=O)c4cccc(-c5ccc(F)cc5)[n+]4[O-])cc3F)c12 [Final product 6] | 21.4 | 30 | 8.5 |
| C[C@@H](Nc1n[nH]c2nccc(Oc3ccc(NC(=O)c4cccc(-c5ccc(F)cc5)[n+]4[O-])cc3F)c12)C(C)(C)O [Final product 16] | 25.8 | 28.2 | 7.5 |
| C[C@H](CO)Nc1n[nH]c2nccc(Oc3ccc(NC(=O)c4ccc(S(C)(=O)=O)c(-c5ccc(F)cc5)[n+]4[O-])cc3F)c12 [Final product 87] | 23 | 20.6 | 5.3 |
| C[C@H](CO)Nc1n[nH]c2nccc(Oc3ccc(NC(=O)c4ccc(C#N)c(-c5ccc(F)cc5)[n+]4[O-])cc3F)c12 [Final product 83] | 6.2 | 30.4 | 3.2 |
| CSc1ccc(C(=O)Nc2ccc(Oc3ccnc4[nH]nc(N[C@H](C)CO)c34)c(F)c2)[n+]([O-])c1-c1ccc(F)cc1 [Final product 86] | 29.7 | 10.2 | 6.4 |
| C[C@H](CO)Nc1n[nH]c2nccc(Oc3ccc(NC(=O)c4ccc(N(C)C)c(-c5ccc(F)cc5)[n+]4[O-])cc3F)c12 [Final product 89] | 17.6 | 16.4 | 5.3 |
| C[C@H](CO)Nc1n[nH]c2nccc(Oc3ccc(NC(=O)c4cccc(-c5ccc(Cl)cc5)[n+]4[O-])cc3Cl)c12 [Final product 116] | 10.7 | 28.7 | 4.6 |
| O=C(Nc1ccc(Oc2ccnc3[nH]nc(NCC4(CO)CC(O)C4)c23)c(F)c1)c1cccc(-c2ccc(F)cc2)[n+]1[O-] (stereo not drawn) [Final product 20] | 20.1 | 29.9 | 6.9 |
| O=C(Nc1ccc(Oc2ccnc3[nH]nc(NCCO)c23)c(F)c1)c1cccc(-c2ccc(F)cc2)[n+]1[O-] [Final product 1] | 5.8 | 35.4 | 2.3 |
| O=C(Nc1ccc(Oc2ccnc3[nH]nc(N[C@H]4COC[C@@H]4O)c23)c(Cl)c1)c1ccc(Cl)c(-c2ccc(F)cc2)[n+]1[O-] [Final product 123] | 10 | 30.1 | 1 |
| CC1(CO)CCN(c2n[nH]c3nccc(Oc4ccc(NC(=O)c5cccc(-c6ccc(F)cc6)[n+]5[O-])cc4F)c23)CC1 [Final product 29] | 20.4 | 15.8 | 5.2 |
| O=C(Nc1ccc(Oc2ccnc3[nH]nc(NCC(O)C(F)(F)F)c23)c(F)c1)c1cccc(-c2ccc(F)cc2)[n+]1[O-] (stereo not drawn) [Final product 11] | 16.8 | 35.7 | 6.3 |
| C[C@H](CO)Nc1n[nH]c2nccc(Oc3cc(F)c(NC(=O)c4ccc(Cl)c(-c5ccc(F)cc5)[n+]4[O-])cc3Cl)c12 [Final product 158] | 15.9 | 29.4 | 2.5 |
| O=C(Nc1ccc(Oc2ccnc3[nH]nc(N4CCO[C@H](CO)C4)c23)c(F)c1)c1cccc(-c2ccc(F)cc2)[n+]1[O-] [Final product 35] | 17.9 | 14.7 | 2 |
| COc1ccc2ncnc(Nc3ccc(NC(=O)c4cccc(-c5ccc(F)cc5)[n+]4[O-])cc3F)c2c1O[C@H](C)CO [Final product 181, (R)-2-((3-fluoro-4-((5-((1-hydroxypropan-2-yl)oxy)-6-methoxyquinazolin-4-yl)amino)phenyl)carbamoyl)-6-(4-fluorophenyl)pyridine 1-oxide] |  | 29.2 | 11.7 |
